Source: US20250011829A1, “MEMBRANE FOR MICROBIOLOGICAL ANALYSIS” (Sartorius Stedim Biotech GmbH, priority 2021, published 2025)

How the values were obtained:
[1] = ILC; for adsorbed amount of surfactant on the membrane: surfactant concentration 0.1 g/L
[2] = Evaluation of wettability by filtration with activated carbon; format: physicochemical; conditions: membrane filters impregnated with 0.1 wt % surfactant; white spots indicate inhomogeneous wetting
Experimental: The wetting ability of membrane filters obtained in Example 1, which were impregnated with 0.1 wt % of each of Tween 80, Triton X100, Brij 35, SDS, and SDBS, was evaluated after filtration with activated carbon. For this purpose, the pieces with a diameter of 4.7 cm were placed with the application side of the membrane pointing upwards on a frit of a filtration unit before cups are attached thereon. All valves of the filtration bar are closed. 0.2 g of activated carbon is suspended in 1 L of RO water and 100 ml of filtration volume is measured after vigorous stirring and filled into the filtration cups. The pump is then switched on and the valves are opened. After filtration, the black filter pieces are placed on a white sheet of paper and photographed. White spots indicate an inhomogeneous wetting pattern (FIG. 1).

[3] = system: L. anisa WDCM 00106; format: cell-based, Legionella anisa

Substance	adsorbed amount of surfactant on the membrane [1] [μg/cm^2]	adsorbed amount relative to SDBS ([1]; surfactant concentration 1.0 g/L)	wetting pattern after filtration with activated carbon [2]	colony forming units of L. anisa [3]
4-(1,1,3,3-tetramethylbutyl)-phenyl-polyethylene glycol [Triton X-100]	51.5	two times higher compared to SDBS	–	–
polyoxyethylene(x)-sorbitan monooleate (x=80) [Tween 80]	–	–	white wetting spots were visible	–
sodium dodecyl benzyl sulfonate [SDBS]	8.73	–	–	sharp decrease in colony forming units
